According to the NIST ThermoML archive (doi:10.1016/j.jct.2013.08.019):
Several values for one entry are separate records, joined by “and”; a condition that tells them apart may be missing. Equal entries are not always repeated. ± gives the expanded uncertainty stated by the source.

Legend:
[1] = Molar enthalpy of transition or fusion; conditions: DSC
[2] = DTA; for Triple point temperature: Crystal 2

SMILES | Molar enthalpy of transition or fusion ([1]; Crystal) | Normal melting temperature ([2]; Crystal) | Molar enthalpy of transition or fusion ([1]; Crystal 2) | Normal melting temperature ([2]; Crystal 1) | Triple point temperature [2]
OCCCCCCO [1,6-hexanediol] | 26.4 ± 0.6 kJ/mol | 41.6 ± 0.6 °C |  |  | 
OCCCCCCCO [1,7-heptanediol] | 26.3 ± 0.9 kJ/mol | 17.4 ± 4 °C |  |  | 
OCCCCCCCCO [1,8-octanediol] | 36.3 ± 0.8 kJ/mol | 58.5 ± 0.6 °C |  |  | 
OCCCCCCCCCO [1,9-nonanediol] | 36.7 ± 0.8 kJ/mol | 45.6 ± 0.6 °C |  |  | 
OCCCCCCCCCCO [1,10-decanediol] | 45 ± 1 kJ/mol | 72.7 ± 0.7 °C |  |  | 
OCCCCCCCCCCCO [1,11-undecanediol] | 45.9 ± 1 kJ/mol | 61.0 ± 0.6 °C |  |  | 
OCCCCCCCCCCCCO [1,12-dihydroxydodecane] | 54.2 ± 1.1 kJ/mol | 79.8 ± 0.7 °C |  |  | 
OCCCCCCCCCCCCCO [1,13-tridecanediol] |  |  | 54.8 ± 1.2 kJ/mol | 77.2 ± 0.7 °C | 339.3 ± 0.7 K
OCCCCCCCCCCCCCCO [1,14-tetradecanediol] | 63.5 ± 1.3 kJ/mol | 86.1 ± 0.7 °C |  |  | 
OCCCCCCCCCCCCCCCO [1,15-pentadecanediol] |  |  | 65.3 kJ/mol and 38.3 kJ/mol | 88.1 ± 0.7 °C | 349 ± 0.7 K
OCCCCCCCCCCCCCCCCO [1,16-dihydroxyhexadecane] |  |  | 72.8 ± 1.5 kJ/mol | 93 ± 0.7 °C | 364.1 ± 0.7 K
